{"source": "patent US4647586A", "about": "“Pharmaceutical oil-in-water type micro-emulsion” (priority 1984, dated 1987)", "key": {"[1]": {"system": "Carrageenin-induced paw edema", "test": "Carrageenin-induced paw edema in rats [Test 1]", "assay_type": "in vivo, Wistar strain male rats", "protocol": "A-1: Effect of inhibiting carrageenin-induced paw edema\n(a) Experimental animals: Wistar strain male rats (body weight 160-220 g), 7 per group.\nAs a control drug, an aqueous solution of sodium 4-biphenylylacetate was used.\nThe volume of the left hind paw of each rat was measured with a plethysmometer (supplied by Ugo Basile Company). A 1% carrageenin solution as an inflammation inducer was injected subcutaneously into the left hind paw of each rat to induce paw edema. The volume of the paw of the rat was measured before the administration of carrageenin and every hour after the administration up to 6 hours. […] The test drugs were intravenously administered 2 hours after the injection of carrageenin. The edema inhibition rate were calculated by the following equation. [formula]\nEc: the volume of edema of the control group to which only the solvent was administered at each time (average value)\nEt: the volume of edema in the drug-administered group at each time (average value)"}, "[2]": {"system": "brewer's yeast-induced fever", "test": "Effects on body temperature in pyretic rats (antipyretic activity)", "assay_type": "in vivo, SD-strain male rats", "details": "iv, 17 h, read-out: ED50 (dose reducing body temperature by at least 1.5° C. in 50% of the rats)", "protocol": "(a) Experimental animals SD-strain male rats (120-185 g).\n(b) Test drugs: The same as in A-1 [Test 2].\nMale Sprague-Dawley rats, weighing 120-185 g, were injected subcutaneously in the nape of the neck with 2 ml of a 20% suspension of dried brewers yeast in physiological saline. Drugs and vehicles were administered intravenously 17 hours after treatment of yeast suspension. Rectal temperature was recorded with a thermistor type thermometer (Natsume Seisakusho, BMA-77 Type) just prior to drug administration and at 1/2, 1, 2 and 4 hours after drug administration."}}, "data": [{"smiles": "O=C([O-])Cc1ccc(-c2ccccc2)cc1.[Na+]", "values": [{"measurement": "Edema inhibitory effect (inhibition rate, %)", "setting": "[1]; 2.5 mg/kg i.v. as 4-biphenylylacetic acid, 2 hours after carrageenin (time of dosing)", "value": 0, "unit": "%"}, {"measurement": "Edema inhibitory effect (inhibition rate, %)", "setting": "[1]; 2.5 mg/kg i.v. as 4-biphenylylacetic acid, 3 hours after carrageenin", "value": 8.4, "unit": "%"}, {"measurement": "Edema inhibitory effect (inhibition rate, %)", "setting": "[1]; 2.5 mg/kg i.v. as 4-biphenylylacetic acid, 4 hours after carrageenin", "value": 13.2, "unit": "%"}, {"measurement": "Edema inhibitory effect (inhibition rate, %)", "setting": "[1]; 2.5 mg/kg i.v. as 4-biphenylylacetic acid, 5 hours after carrageenin", "value": 17.1, "unit": "%"}, {"measurement": "Edema inhibitory effect (inhibition rate, %)", "setting": "[1]; 2.5 mg/kg i.v. as 4-biphenylylacetic acid, 6 hours after carrageenin", "value": 19.8, "unit": "%"}, {"measurement": "Edema inhibitory effect (inhibition rate, %)", "setting": "[1]; 5.0 mg/kg i.v. as 4-biphenylylacetic acid, 2 hours after carrageenin (time of dosing)", "value": 0, "unit": "%"}, {"measurement": "Edema inhibitory effect (inhibition rate, %)", "setting": "[1]; 5.0 mg/kg i.v. as 4-biphenylylacetic acid, 3 hours after carrageenin", "value": 9.5, "unit": "%"}, {"measurement": "Edema inhibitory effect (inhibition rate, %)", "setting": "[1]; 5.0 mg/kg i.v. as 4-biphenylylacetic acid, 4 hours after carrageenin", "value": 15.1, "unit": "%"}, {"measurement": "Edema inhibitory effect (inhibition rate, %)", "setting": "[1]; 5.0 mg/kg i.v. as 4-biphenylylacetic acid, 5 hours after carrageenin", "value": 17.4, "unit": "%"}, {"measurement": "Edema inhibitory effect (inhibition rate, %)", "setting": "[1]; 5.0 mg/kg i.v. as 4-biphenylylacetic acid, 6 hours after carrageenin", "value": 20.8, "unit": "%"}, {"measurement": "ED20", "setting": "[1]; Rattus norvegicus, iv, 2 h, read-out: ED20 (20% edema inhibitory effect)", "value": 8.5, "unit": "mg/kg"}, {"measurement": "Edema inhibitive effect versus the micro-emulsions", "setting": "[1]; i.v.", "value": "less effect"}, {"measurement": "ED50", "setting": "[2]", "value": 2.6, "unit": "mg/kg"}]}]}
